Experimental data as given in ChEMBL document CHEMBL1201862, “PubChem BioAssay data set” (2004).
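All cell lines were grown in 96-well plates and treated with compound for 48 hours. GI50: concentration for 50% inhibition of growth.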 Active and inactive are the calls of the source. Rule as the data show it: active = GI50 up to about 1.1 µM and inactive = higher.

What was measured:
Assay in all cases: DTP human tumour cell line panel, 48 h
NCI-H226 = tested on: NCI-H226
MDA-MB-435 = tested on: MDA-MB-435
LOX IMVI = tested on: LOX IMVI
NCI-H460 = tested on: NCI-H460
IGROV-1 = tested on: IGROV-1
UO-31 = tested on: UO-31
NCI-H522 = tested on: NCI-H522
RXF 393 = tested on: RXF 393
NCI/ADR-RES = tested on: NCI/ADR-RES
UACC-257 = tested on: UACC-257
HCC 2998 = tested on: HCC 2998
OVCAR-5 = tested on: OVCAR-5
HOP-62 = tested on: HOP-62
EKVX = tested on: EKVX
HCT-116 = tested on: HCT-116
CCRF-CEM = tested on: CCRF-CEM
MDA-N = tested on: MDA-N
SK-MEL-28 = tested on: SK-MEL-28
CAKI-1 = tested on: CAKI-1
TK-10 = tested on: TK-10

Row | Structure (SMILES) | GI50 (NCI-H226) | GI50 (MDA-MB-435) | GI50 (LOX IMVI) | GI50 (NCI-H460) | GI50 (IGROV-1) | GI50 (UO-31) | GI50 (NCI-H522) | GI50 (RXF 393) | GI50 (NCI/ADR-RES) | GI50 (UACC-257) | GI50 (HCC 2998) | GI50 (OVCAR-5) | GI50 (HOP-62) | GI50 (EKVX) | GI50 (HCT-116) | GI50 (CCRF-CEM) | GI50 (MDA-N) | GI50 (SK-MEL-28) | GI50 (CAKI-1) | GI50 (TK-10)
1 | CC(C)OC(=O)c1ccc(CCc2cc(O)c(Br)cc2O)cc1 | 18.7 µM (inactive) | 8.11 µM (inactive) | 8.04 µM (inactive) | 18.6 µM (inactive) | 9.2 µM (inactive) | 5.52 µM (inactive) | 6.24 µM (inactive) | 15 µM (inactive) | 9.2 µM (inactive) | 13.6 µM (inactive) | 16.1 µM (inactive) | 17.5 µM (inactive) | 12.3 µM (inactive) | 15.3 µM (inactive) | 11.5 µM (inactive) | 3.92 µM (inactive) | 9.55 µM (inactive) | 13.9 µM (inactive) | 11.4 µM (inactive) | 16.9 µM (inactive)
2 | CCOC(=O)c1cc(C#N)[nH]c1-c1ccsc1 | 44.3 µM (inactive) | 23.1 µM (inactive) | 36.2 µM (inactive) | 32.2 µM (inactive) | 40.4 µM (inactive) | 0.114 µM (active) | 30.3 µM (inactive) | 17.3 µM (inactive) | 32.4 µM (inactive) | 36.2 µM (inactive) | 29.8 µM (inactive) | 34.8 µM (inactive) | 59.8 µM (inactive) | 17.6 µM (inactive) | 38.4 µM (inactive) | 21.5 µM (inactive) | 33.9 µM (inactive) | 40.2 µM (inactive) | 50.7 µM (inactive) | 38.5 µM (inactive)
3 | C=C1C2CC3CCC2C(OC(=O)c2ccccc2C(=O)O)C13 (stereo not given) | > 100 µM (inactive) | > 100 µM (inactive) | > 100 µM (inactive) | > 100 µM (inactive) | > 100 µM (inactive) | > 100 µM (inactive) | > 100 µM (inactive) | > 100 µM (inactive) | > 100 µM (inactive) | > 100 µM (inactive) | > 100 µM (inactive) | > 100 µM (inactive) | > 100 µM (inactive) | > 100 µM (inactive) | > 100 µM (inactive) | > 100 µM (inactive) | > 100 µM (inactive) | > 100 µM (inactive) | > 100 µM (inactive) | > 100 µM (inactive)
4 | CCC[C@H](C)[C@H]1NC(=O)[C@@H](NC(=O)[C@@H](CC(C)C)N(C)C(=O)C2CCCN2C(=O)[C@H](C)O)[C@@H](C)OC(=O)[C@H](CC(C)C)N(C)C(=O)[C@@H]2CCCN2C(=O)[C@H](CC(C)C)NC(=O)[C@@H](C)C(=O)[C@H](C(C)C)OC(=O)C[C@@H]1O (stereo not given in full) | < 0.0025 µM (active) | < 0.0025 µM (active) | < 0.0025 µM (active) | < 0.0025 µM (active) | < 0.0025 µM (active) | 0.0107 µM (active) | < 0.0025 µM (active) | < 0.0025 µM (active) | 0.189 µM (active) | < 0.0025 µM (active) | < 0.0025 µM (active) | < 0.0025 µM (active) | < 0.0025 µM (active) | < 0.0025 µM (active) | < 0.0025 µM (active) | < 0.0025 µM (active) | < 0.0025 µM (active) | < 0.0025 µM (active) | 0.0162 µM (active) | < 0.0025 µM (active)
5 | CC1=NN(c2cccc(Cl)c2)C2(SCC(=O)N2c2nc3ccccc3s2)/C1=C\c1ccc(Cl)cc1 (stereo not given) | 23.8 µM (inactive) | 19.9 µM (inactive) | 20.8 µM (inactive) | 15.8 µM (inactive) | 15 µM (inactive) | 15.1 µM (inactive) | 20.3 µM (inactive) | 20.4 µM (inactive) | 38.8 µM (inactive) | 21.6 µM (inactive) | 14.5 µM (inactive) | 20.2 µM (inactive) | 18 µM (inactive) | 33.5 µM (inactive) | 16.3 µM (inactive) | 0.272 µM (active) | 25.7 µM (inactive) | 24.5 µM (inactive) | 18.3 µM (inactive) | 30.2 µM (inactive)
6 | C=CC[C@H](C)CCC(=O)N1[C@H]2CC3CC[C@@]2(CS1(=O)=O)C3(C)C | 51.5 µM (inactive) | 47.2 µM (inactive) | 30.8 µM (inactive) | 30.5 µM (inactive) | > 100 µM (inactive) | 40.7 µM (inactive) | 30.3 µM (inactive) | 49 µM (inactive) | 44.2 µM (inactive) | 66.1 µM (inactive) | 49.2 µM (inactive) | > 100 µM (inactive) | > 100 µM (inactive) | 51.1 µM (inactive) | 48 µM (inactive) | 18.7 µM (inactive) | 79.8 µM (inactive) | > 100 µM (inactive) | 80.4 µM (inactive) | > 100 µM (inactive)
7 | C=CC1=C(C)c2cc3[nH]c(c4c5nc(cc6[nH]c(cc1n2)c(C)c6CC)C(C)=C5C(=O)[C@@H]4C(=O)OC)[C@@H](CCC(=O)O)[C@@H]3C | 6.01 µM (inactive) | 2.24 µM (inactive) | 6.22 µM (inactive) | 2.81 µM (inactive) | 7.24 µM (inactive) | 2.33 µM (inactive) | 7.57 µM (inactive) | 1.29 µM (inactive) | 9.02 µM (inactive) | 5.32 µM (inactive) | 2 µM (inactive) | 3.41 µM (inactive) | 8.95 µM (inactive) | 10.2 µM (inactive) | 8.71 µM (inactive) | 1.21 µM (inactive) | 5.27 µM (inactive) | 1.64 µM (inactive) | 9.51 µM (inactive) | 2.82 µM (inactive)
8 | CN(C)/C=N/NC(=O)/C(C#N)=C/N(C)C | > 100 µM (inactive) | > 100 µM (inactive) | > 100 µM (inactive) | > 100 µM (inactive) | > 100 µM (inactive) | > 100 µM (inactive) | > 100 µM (inactive) | > 100 µM (inactive) | > 100 µM (inactive) | > 100 µM (inactive) | > 100 µM (inactive) | > 100 µM (inactive) | > 100 µM (inactive) | > 100 µM (inactive) | > 100 µM (inactive) | > 100 µM (inactive) | > 100 µM (inactive) | > 100 µM (inactive) | > 100 µM (inactive) | > 100 µM (inactive)
9 | COC(=O)c1c(C)cccc1C1CN=NC12Cc1cc(C)c(C)cc1C2=O (stereo not given) | 47.9 µM (inactive) | 27.9 µM (inactive) | 24.2 µM (inactive) | 47.9 µM (inactive) | > 100 µM (inactive) | 31.6 µM (inactive) | 19.2 µM (inactive) | 68.4 µM (inactive) | 27.4 µM (inactive) | 27.2 µM (inactive) | > 100 µM (inactive) | > 100 µM (inactive) | > 100 µM (inactive) | 59.6 µM (inactive) | 34.8 µM (inactive) | 37.8 µM (inactive) | 25.6 µM (inactive) | > 100 µM (inactive) | 73.1 µM (inactive) | 51.4 µM (inactive)
10 | CC(=O)O[C@H]1C(=O)[C@@]2(C)[C@H]([C@H](OC(=O)c3ccccc3)[C@]3(O)C[C@H](OC(=O)[C@H](O)[C@@H](NC(=O)c4ccccc4)c4cccc(N(C)C)c4)C(C)=C1C3(C)C)[C@]1(OC(C)=O)CO[C@@H]1C[C@@H]2O | 0.665 µM (active) | 0.00893 µM (active) | 0.036 µM (active) | 0.0419 µM (active) | 0.0537 µM (active) | 1.96 µM (inactive) | 0.0533 µM (active) | 0.221 µM (active) | > 28.2 µM (inactive) | 0.714 µM (active) | 0.0315 µM (active) | 0.157 µM (active) | 0.256 µM (active) | > 32.1 µM (inactive) | 0.0174 µM (active) | 0.0215 µM (active) | 0.00766 µM (active) | 0.575 µM (active) | > 48.3 µM (inactive) | 1.41 µM (inactive)
11 | COc1ccc(Oc2cnn(C(Br)(Br)C(C)=O)c(=O)c2Br)cc1 | 21.4 µM (inactive) | 10 µM (inactive) | 11 µM (inactive) | 18.8 µM (inactive) | 18.5 µM (inactive) | 7.66 µM (inactive) | 4.56 µM (inactive) | 6.08 µM (inactive) | 18.5 µM (inactive) | 15.1 µM (inactive) | 16.8 µM (inactive) | 17.7 µM (inactive) | 16.7 µM (inactive) | 17.1 µM (inactive) | 7 µM (inactive) | 1.82 µM (inactive) | 10.3 µM (inactive) | 16 µM (inactive) | 10.8 µM (inactive) | 13.5 µM (inactive)
12 | COC(=O)C1=C(OC(=O)/C(=C/c2ccc(Cl)cc2Cl)c2ccc(Cl)cc2Cl)C(C(=O)OC)[C@@]2(O)[C@@H](C(=O)OC)[C@H](C)C[C@@H]1[C@@H]2C(=O)OC (stereo not given in full) | > 100 µM (inactive) | > 100 µM (inactive) | > 100 µM (inactive) | > 100 µM (inactive) | > 100 µM (inactive) | > 100 µM (inactive) | 64.1 µM (inactive) | 61.8 µM (inactive) | > 100 µM (inactive) | > 100 µM (inactive) | > 100 µM (inactive) | > 100 µM (inactive) | > 100 µM (inactive) | 47.8 µM (inactive) | > 100 µM (inactive) | 88.5 µM (inactive) | > 100 µM (inactive) | > 100 µM (inactive) | > 100 µM (inactive) | > 100 µM (inactive)
13 | CC1(C)OCC(C2OC(=O)C(OCc3ccccc3)=C2OCc2ccccc2)O1 (stereo not given) | 32.7 µM (inactive) | 26.9 µM (inactive) | 31.2 µM (inactive) | 41 µM (inactive) | 64.3 µM (inactive) | 37.1 µM (inactive) | 23.3 µM (inactive) | 49.1 µM (inactive) | 35.2 µM (inactive) | 29.9 µM (inactive) | 36.8 µM (inactive) | 60.1 µM (inactive) | 81.8 µM (inactive) | 37.6 µM (inactive) | 31.3 µM (inactive) | 37.8 µM (inactive) | 38 µM (inactive) | 65.6 µM (inactive) | 45.2 µM (inactive) | 44.3 µM (inactive)
